Measurements published in US6737383B1, “Herbicidal oxadiazolidines” (priority 1999, dated 2004).

Legend:
[1] = test system: wild poinsettia; experiment: Test C postemergence wild poinsettia; type: in vivo, Euphorbia heterophylla; conditions: 0 to 100 scale, 0 no effect, 100 complete control
Procedure: (§1) Compounds evaluated in this test were formulated in a non-phytotoxic solvent mixture which included a surfactant and applied to plants that were grown for various periods of time before treatment (postemergence application). A mixture of sandy loam soil and greenhouse potting mix in a 60:40 ratio was used for the postemergence test.
(§2) Plantings of these crops and weed species were adjusted to produce plants of appropriate size for the postemergence test. All plant species were grown using normal greenhouse practices. Crop and weed species include arrowleaf sida (Sida rhombifolia), barnyardgrass (Echinochloa crus-galli), cocklebur (Xanthium strumarium), common ragweed (Ambrosia elatior), corn (Zea mays), cotton (Gossypium hirsutum), eastern black nightshade (Solanum ptycanthum), fall panicum (Panicum dichotomiflorum), field bindweed (Convolvulus arvensis), giant foxtail (Setaria faberii), hairy beggarticks (Bidens pilosa), ivyleaf morningglory (Ipomoea hederacea), johnsongrass (Sorghum halepense), ladysthumb smartweed (Polygonum persicaria), lambsquarters (Chenopodium album), large crabgrass (Digitaria sanguinalis), purple nutsedge (Cyperus rotundus), redroot pigweed (Amaranthus retroflexus), soybean (Glycine max), surinam grass (Brachiaria decumbens), velvetleaf (Abutilon theophrasti) and wild poinsettia (Euphorbia heterophylla).
(§3) Treated plants and untreated controls were maintained in a greenhouse for approximately 14, to 21 days, after which all treated plants were compared to untreated controls and visually evaluated. Plant response ratings, summarized in Table C, were based upon a 0 to 100 scale where 0 was no effect and 100 was complete control. A dash response (−) means no test result.

[2] = test system: tall mallow; experiment: Test D tall mallow; type: in vivo, Malva sylvestris; conditions: Postemergence, 0 to 100 scale
[3] = test system: bermuda-grass; experiment: Test D bermudagrass; type: in vivo, Cynodon dactylon; conditions: Postemergence, 0 to 100 scale
[4] = test system: downy brome; experiment: Test E downy brome; type: in vivo, Bromus tectorum; conditions: Postemergence; for Plant response rating, Downy brome: 0 to 100 scale; for Downy brome plant response rating: Rate 250 g/ha, 0 to 100 scale where 0 is no effect and 100 is complete control
Procedure: as §1, with “in the 1- to 4-leaf stage” for “grown for various periods of time before treatment”
(§4) Plantings of these crops and weed species were adjusted to produce plants of appropriate size for the postemergence test. All plant species were grown using normal greenhouse practices. Crop and weed species include annual bluegrass (Poa annua), blackgrass (Alopecurus myosuroides), black nightshade (Solanum nigra), chickweed (Stellaria media), common poppy (Papaver rhoeas), deadnettle (Lamium amplexicaule), downy brome (Bromus tectorum), field violet (Viola arvensis), galium (Galium aparine), green foxtail (Setaria viridis), Italian ryegrass (Lolium multiflorum), jointed goatgrass (Aegilops cylindrica), kochia (Kochia scoparia), lambsquarters (Chenopodium album), littleseed canarygrass (Phalaris minor), rape (Brassica napus), redroot pigweed (Amaranthus retroflexus), Russian thistle (Salsola kali), scentless chamomile (Matricaria inodora), spring barley (Hordeum vulgare), sugar beet (Beta vulgaris), sunflower (Helianthus annuus), ivyleaf speedwell (Veronica hederaefolia), spring wheat (Triticum aestivum), winter wheat (Triticum aestivum), wild buckwheat (Polygonum convolvulus), wild mustard (Sinapis arvensis), wild oat (Avena fatua), windgrass (Apera spica-venti) and winter barley (Hordeum vulgare).
(§5) Treated plants and untreated controls were maintained in a greenhouse for approximately 21 to 28 days, after which all treated plants were compared to untreated controls and visually evaluated. […] A dash response (-) means no test result.

[5] = test system: spring wheat; experiment: Test E spring wheat; type: in vivo, Triticum aestivum; conditions: Postemergence; for Plant response rating, Spring Wheat: 0 to 100 scale; for Spring Wheat plant response rating: Rate 250 g/ha, 0 to 100 scale where 0 is no effect and 100 is complete control
Procedure: as §1, with “in the 1- to 4-leaf stage” for “grown for various periods of time before treatment”
as §4, §5

[6] = test system: Johnson grass; experiment: Test D Johnson grass; type: in vivo, Sorghum halepense; conditions: Postemergence, 0 to 100 scale
[7] = test system: Green foxtail; experiment: Test D green foxtail; type: in vivo; conditions: Postemergence, 0 to 100 scale, 0 no injury, 100 complete control
[8] = test system: scentless chamomile; experiment: Test E scentless chamomile; type: in vivo, Matricaria inodora; conditions: Postemergence; for Plant response rating, Scentless chamo: 0 to 100 scale; for Scentless chamo plant response rating: Rate 250 g/ha, 0 to 100 scale where 0 is no effect and 100 is complete control
Procedure: as §1, with “in the 1- to 4-leaf stage” for “grown for various periods of time before treatment”
as §4, §5

[9] = test system: barnyardgrass; experiment: Test C postemergence barnyardgrass; type: in vivo, Echinochloa crus-galli; conditions: 0 to 100 scale, 0 no effect, 100 complete control
Procedure: as §1, §2, §3

[10] = test system: field violet; experiment: Test E field violet; type: in vivo, Viola arvensis; conditions: Preemergence; for Field violet plant response rating (0 to 100 scale): Rate 250 g/ha
[11] = test system: Italian ryegrass; experiment: Test E Italian ryegrass; type: in vivo, Lolium multiflorum; conditions: Postemergence; for Plant response rating, I. Ryegrass: 0 to 100 scale; for I. Ryegrass plant response rating: Rate 250 g/ha, 0 to 100 scale where 0 is no effect and 100 is complete control
Procedure: as §1, with “in the 1- to 4-leaf stage” for “grown for various periods of time before treatment”
as §4, §5

[12] = test system: rape; experiment: Test E rape; type: in vivo, Brassica napus; conditions: Postemergence; for Plant response rating, Rape: 0 to 100 scale; for Rape plant response rating: Rate 250 g/ha, 0 to 100 scale where 0 is no effect and 100 is complete control
Procedure: […] A mixture of sandy loam soil and greenhouse potting mix in a 60:40 ratio was used for the postemergence test.
as §4, §5

[13] = test system: fall panicum; experiment: Test C postemergence fall panicum; type: in vivo, Panicum dichotomiflorum; conditions: 0 to 100 scale, 0 no effect, 100 complete control
Procedure: as §1, §2, §3

[14] = test system: deadnettle; experiment: Test E deadnettle; type: in vivo, Lamium amplexicaule; conditions: Preemergence; for Deadnettle plant response rating (0 to 100 scale): Rate 250 g/ha
[15] = test system: Green foxtail; experiment: Test D green foxtail; type: in vivo; conditions: Postemergence, 0 to 100 scale, 0 no injury, 100 complete control; remark: listed apart in the source
[16] = test system: sandbur; experiment: Test D sandbur; type: in vivo, Cenchrus echinatus; conditions: Postemergence, 0 to 100 scale
[17] = test system: Alexandergrass; experiment: Test D Alexandergrass; type: in vivo, Brachiaria plantaginea; conditions: Postemergence, 0 to 100 scale
[18] = test system: field violet; experiment: Test E field violet; type: in vivo, Viola arvensis; conditions: Postemergence; for Plant response rating, Field violet: 0 to 100 scale; for Field violet plant response rating: Rate 250 g/ha, 0 to 100 scale where 0 is no effect and 100 is complete control
Procedure: as §1, with “in the 1- to 4-leaf stage” for “grown for various periods of time before treatment”
as §4, §5

[19] = Rate 16 g/ha, 0 no injury, 100 complete control
[20] = Rate 32 g/ha, 0 no injury, 100 complete control
[21] = Rate 64 g/ha, 0 no injury, 100 complete control
[22] = Rate 125 g/ha, 0 no injury, 100 complete control
[23] = Rate 125 g/ha, 0 is no effect, 100 is complete control
[24] = Rate 500 g/ha, 0 is no effect, 100 is complete control
[25] = Rate 125 g/ha, 0 to 100 scale (0 no effect, 100 complete control)
[26] = Rate 500 g/ha, 0 to 100 scale where 0 is no effect and 100 is complete control

CC(C)N(C(=O)n1oc(=O)n(C2CC2)c1=O)c1ccc(F)cc1 [Compound 242]
Plant response rating Wild poinsettia ([1]; Rate 140 g/ha): 0
Plant response rating Wild poinsettia ([1]; Rate 280 g/ha): 0
Plant response rating Wild poinsettia ([1]; Rate 560 g/ha): 0
Plant response rating Wild poinsettia ([1]; Rate 1120 g/ha): 85
Plant response rating, Tall Mallow [2, 19]: 0
Plant response rating, Tall Mallow [2, 20]: 0
Tall Mallow plant response rating [2, 21]: 50
Tall Mallow plant response rating [2, 22]: 90
Plant response rating, Tall Mallow ([2]; Rate 250 g/ha): 100
Plant response rating, Bermudagrass [3, 19]: 90
Plant response rating, Bermudagrass [3, 20]: 100
Plant response rating, Bermudagrass [3, 21]: 100
Plant response rating, Bermudagrass [3, 22]: 100
Plant response rating, Bermudagrass ([3]; Rate 250 g/ha): 100
Plant response rating, Downy brome ([4]; Rate 62 g/ha): 30
Plant response rating, Downy brome [4, 23]: 30
Downy brome plant response rating [4]: 30
Plant response rating, Downy brome [4, 24]: 40
Plant response rating, Spring Wheat ([5]; Rate 62 g/ha): 15
Plant response rating, Spring Wheat [5, 23]: 20
Spring Wheat plant response rating [5]: 10
Plant response rating, Spring Wheat [5, 24]: 20
Plant response rating, Johnsongrass [6, 19]: 0
Plant response rating, Johnsongrass [6, 20]: 0
Plant response rating, Johnsongrass [6, 21]: 40
Plant response rating, Johnsongrass [6, 22]: 30
Plant response rating, Johnsongrass ([6]; Rate 250 g/ha): 90
Plant response rating, Green foxtail ([7]; Rate 16 g/ha): 30
Plant response rating, Green foxtail ([7]; Rate 32 g/ha): 100
Plant response rating, Scentless chamo ([8]; Rate 62 g/ha): 55
Plant response rating, Scentless chamo [8, 23]: 40
Scentless chamo plant response rating [8]: 0
Plant response rating, Scentless chamo [8, 24]: 20
Plant response rating, Barnyardgrass ([9]; Rate 140 g/ha): 80
Plant response rating, Barnyardgrass ([9]; Rate 280 g/ha): 85
Plant response rating, Barnyardgrass ([9]; Rate 560 g/ha): 90
Plant response rating, Barnyardgrass ([9]; Rate 1120 g/ha): 95
Plant response rating, Field violet [10, 25]: 50
Field violet plant response rating (0 to 100 scale) [10]: 65
Plant response rating, Field violet [10, 26]: 100
Plant response rating, I. Ryegrass ([11]; Rate 62 g/ha): 50
Plant response rating, I. Ryegrass [11, 23]: 0
I. Ryegrass plant response rating [11]: 70
Plant response rating, I. Ryegrass [11, 24]: 60
Plant response rating, Rape ([12]; Rate 62 g/ha): 20
Plant response rating, Rape [12, 23]: 10
Rape plant response rating [12]: 0
Plant response rating, Rape [12, 24]: 50
Plant response rating Fall panicum ([13]; Rate 140 g/ha): 30
Plant response rating Fall panicum ([13]; Rate 280 g/ha): 85
Plant response rating Fall panicum ([13]; Rate 560 g/ha): 90
Plant response rating Fall panicum ([13]; Rate 1120 g/ha): 90
Deadnettle plant response rating (0 to 100 scale) [14]: 70
Plant response rating, Deadnettle [14, 26]: 100
Green foxtail plant response rating ([15]; Rate 64 g/ha): 100
Green foxtail plant response rating ([15]; Rate 125 g/ha): 100
Plant response rating, Sandbur [16, 19]: 20
Plant response rating, Sandbur [16, 20]: 30
Sandbur plant response rating [16, 21]: 50
Sandbur plant response rating [16, 22]: 100
Plant response rating, Sandbur ([16]; Rate 250 g/ha): 100
Plant response rating, Alexandergrass [17, 19]: 0
Plant response rating, Alexandergrass [17, 20]: 50
Plant response rating, Alexandergrass [17, 21]: 90
Plant response rating, Alexandergrass [17, 22]: 100
Plant response rating, Alexandergrass ([17]; Rate 250 g/ha): 100
Plant response rating, Field violet ([18]; Rate 62 g/ha): 30
Plant response rating, Field violet [18, 23]: 60
Field violet plant response rating [18]: 0
Plant response rating, Field violet [18, 24]: 40

CC(C)N(C(=O)n1oc(=O)n(C)c1=O)c1ccc(F)cc1 [Compound 138]
Plant response rating Wild poinsettia ([1]; Rate 140 g/ha): 0
Plant response rating Wild poinsettia ([1]; Rate 280 g/ha): 0
Plant response rating Wild poinsettia ([1]; Rate 560 g/ha): 0
Plant response rating Wild poinsettia ([1]; Rate 1120 g/ha): 70
Plant response rating, Downy brome ([4]; Rate 125 g/ha): 0
Downy brome plant response rating [4]: 2
Plant response rating, Spring Wheat ([5]; Rate 125 g/ha): 0
Spring Wheat plant response rating [5]: 0
Plant response rating, Scentless chamo ([8]; Rate 125 g/ha): 20
Scentless chamo plant response rating [8]: 0
Plant response rating, Barnyardgrass ([9]; Rate 140 g/ha): 40
Plant response rating, Barnyardgrass ([9]; Rate 280 g/ha): 70
Plant response rating, Barnyardgrass ([9]; Rate 560 g/ha): 85
Plant response rating, Barnyardgrass ([9]; Rate 1120 g/ha): 85
Plant response rating, Field violet [10, 25]: 50
Field violet plant response rating (0 to 100 scale) [10]: 70
Plant response rating, I. Ryegrass ([11]; Rate 125 g/ha): 0
I. Ryegrass plant response rating [11]: 0
Plant response rating, Rape ([12]; Rate 125 g/ha): 10
Rape plant response rating [12]: 0
Plant response rating Fall panicum ([13]; Rate 140 g/ha): 0
Plant response rating Fall panicum ([13]; Rate 280 g/ha): 0
Plant response rating Fall panicum ([13]; Rate 560 g/ha): 60
Plant response rating Fall panicum ([13]; Rate 1120 g/ha): 90
Plant response rating, Deadnettle [14, 25]: 65
Deadnettle plant response rating (0 to 100 scale) [14]: 70
Plant response rating, Field violet ([18]; Rate 125 g/ha): 10
Field violet plant response rating [18]: 30

CC(C)N(C(=O)n1oc(=O)n(C2CCCCCC2)c1=O)c1ccc(F)cc1F [Compound 342]
Plant response rating, Tall Mallow [2, 19]: 0
Plant response rating, Tall Mallow [2, 20]: 0
Tall Mallow plant response rating [2, 21]: 0
Tall Mallow plant response rating [2, 22]: 0
Plant response rating, Tall Mallow ([2]; Rate 250 g/ha): 10
Plant response rating, Bermudagrass [3, 19]: 20
Plant response rating, Bermudagrass [3, 20]: 30
Plant response rating, Bermudagrass [3, 21]: 90
Plant response rating, Bermudagrass [3, 22]: 100
Plant response rating, Bermudagrass ([3]; Rate 250 g/ha): 100
Plant response rating, Johnsongrass [6, 19]: 0
Plant response rating, Johnsongrass [6, 20]: 0
Plant response rating, Johnsongrass [6, 21]: 0
Plant response rating, Johnsongrass [6, 22]: 0
Plant response rating, Johnsongrass ([6]; Rate 250 g/ha): 0
Plant response rating, Green foxtail ([7]; Rate 16 g/ha): 0
Plant response rating, Green foxtail ([7]; Rate 32 g/ha): 0
Green foxtail plant response rating ([15]; Rate 64 g/ha): 0
Green foxtail plant response rating ([15]; Rate 125 g/ha): 60
Plant response rating, Sandbur [16, 19]: 0
Plant response rating, Sandbur [16, 20]: 0
Sandbur plant response rating [16, 21]: 0
Plant response rating, Sandbur ([16]; Rate 250 g/ha): 0
Plant response rating, Alexandergrass [17, 19]: 0
Plant response rating, Alexandergrass [17, 20]: 0
Plant response rating, Alexandergrass [17, 21]: 0
Plant response rating, Alexandergrass [17, 22]: 70
Plant response rating, Alexandergrass ([17]; Rate 250 g/ha): 80
